Active and inactive are the calls of the source. No cut-off for these calls is given here. Numbered stars: 1 amine (or outer) side, 2 acyl side, 3 side chain; on linkers, the order of the positions; unused ones are H or OH. Square brackets hold non-standard residues; d marks the D form. Peptide text beside a SMILES is read from it. X1 = O=C(c1ccc(C[C@H](N[*:1])C(=O)[*:2])cc1)P(=O)(O)O
Experiments:
[1] = target: T1, Tyrosine-protein phosphatase non-receptor type 1 (Homo sapiens, UniProt P18031); assay: Inhibition of PTP1B catalytic domain (1 to 321 amino acids) (unknown origin) expressed in Escherichia coli Rosetta (DE3) incubated for 30 mins in absence of UV irradiation with 365 nm for 45 mins and in presence of 1 mM DTT by pNPP assay
T1 sequence (P18031 whole entry): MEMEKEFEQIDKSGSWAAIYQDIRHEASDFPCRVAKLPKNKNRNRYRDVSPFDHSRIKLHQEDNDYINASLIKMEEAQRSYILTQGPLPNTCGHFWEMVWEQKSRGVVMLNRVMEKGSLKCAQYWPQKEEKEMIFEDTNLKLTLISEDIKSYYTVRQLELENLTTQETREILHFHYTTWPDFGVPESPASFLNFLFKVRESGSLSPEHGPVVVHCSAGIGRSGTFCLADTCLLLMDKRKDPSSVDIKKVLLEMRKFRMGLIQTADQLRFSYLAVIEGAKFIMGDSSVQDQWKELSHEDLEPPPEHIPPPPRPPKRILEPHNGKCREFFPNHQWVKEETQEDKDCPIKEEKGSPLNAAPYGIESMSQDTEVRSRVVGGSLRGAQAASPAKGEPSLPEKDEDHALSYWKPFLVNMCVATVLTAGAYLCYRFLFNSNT

[2] = target: T1, Tyrosine-protein phosphatase non-receptor type 1; assay: Inhibition of PTP1B catalytic domain (1 to 321 amino acids) (unknown origin) expressed in Escherichia coli Rosetta (DE3) incubated for 30 mins followed by UV irradiation with 365 nm for 45 mins by pNPP assay
[3] = target: T1, Tyrosine-protein phosphatase non-receptor type 1; assay: Inhibition of PTP1B catalytic domain (1 to 321 amino acids) (unknown origin) expressed in Escherichia coli Rosetta (DE3) incubated for 30 mins followed by UV irradiation with 365 nm for 45 mins in presence of 1 mM DTT by pNPP assay
[4] = target: T1, Tyrosine-protein phosphatase non-receptor type 1; assay: Inhibition of PTP1B catalytic domain (1 to 321 amino acids) (unknown origin) expressed in Escherichia coli Rosetta (DE3) incubated for 30 mins in absence of UV irradiation with 365 nm for 45 mins by pNPP assay
[5] = target: T2, Tyrosine-protein phosphatase non-receptor type 1 (Homo sapiens) (UniProt P18031); conditions: 35 uM
T2 sequence (whole entry): T1 sequence (P18031 whole entry)
Description: Inhibition of PTP1B catalytic domain (1 to 321 amino acids) (unknown origin) expressed in Escherichia coli Rosetta (DE3) at 35 uM incubated for 30 mins followed by UV irradiation with 365 nm for 45 mins in presence of 100 uM DTT by pNPP assay

[6] = target: T2, Tyrosine-protein phosphatase non-receptor type 1 (Homo sapiens); conditions: 10 uM
Description: Inhibition of PTP1B catalytic domain (1 to 321 amino acids) (unknown origin) expressed in Escherichia coli Rosetta (DE3) at 10 uM incubated for 30 mins followed by UV irradiation with 365 nm for 45 mins by pNPP assay

[7] = target: T2, Tyrosine-protein phosphatase non-receptor type 1 (Homo sapiens); conditions: 10 uM; remark: listed apart in the source
Description: Inhibition of PTP1B catalytic domain (1 to 321 amino acids) (unknown origin) expressed in Escherichia coli Rosetta (DE3) at 10 uM incubated for 30 mins followed by UV irradiation with 365 nm for 45 mins in presence of 1 mM DTT by pNPP assay

[8] = Photodimerization of the compound exposed to UV irradiation in presence of DTT; assay type: physicochemical
[9] = Photodimerization of the compound exposed to UV irradiation in presence of TEMPO radical; assay type: physicochemical

Row | Compound | Ki [1] [µM] | Ki [2] [µM] | Ki [3] [µM] | Ki [4] [µM] | inhibition [5] | inhibition [6] | inhibition [7] | Activity [8] | Activity [9]
1 | CC(=O)N[C@@H](CC(=O)O)C(=O)N[C@@H](C)C(=O)N[C@@H](CC(=O)O)C(=O)N[C@@H](CCC(=O)O)C(=O)N[C@@H](Cc1ccc(C(=O)P(=O)(O)O)cc1)C(=O)N[C@@H](CC(C)C)C(N)=O (Ac-DADE[X1]L-NH2) | 17.3 | 0.39 | 12.9 | 30 | inactive | – | – | – | –
2 | CC[C@H](C)[C@H](NC(=O)[C@H](Cc1ccc(C(=O)P(=O)(O)O)cc1)NC(=O)[C@H](CC(N)=O)NC(C)=O)C(=O)N[C@@H](CC(=O)O)C(=O)N[C@@H](CC(C)C)C(=O)N[C@@H](CC(=O)O)C(N)=O (Ac-N[X1]IDLD-NH2) | – | 0.41 | – | 48.8 | – | Active | inactive | – | –
3 | Cc1ccc(C(=O)P(=O)(O)O)cc1 | – | – | – | – | – | – | – | Not Active | Not Active

From ChEMBL document CHEMBL3425466, “Light-switched inhibitors of protein tyrosine phosphatase PTP1B based on phosphonocarbonyl phenylalanine as photoactive phosphotyrosine mimetic” (Bioorg Med Chem, 2015)
